Experiments:
[1] = Metabolic stability in human liver microsomes (HLM); assay type: in vitro ADME; settings: both sexes, human, pooled human liver microsomes, pH 7.4, NADPH
Source text: HLM Stability. Pooled HLM from adult male and female donors (Corning 452117) were used.

[2] = Metabolic stability in mouse liver microsomes (MLM); assay type: in vitro ADME; settings: mouse, pooled mouse liver microsomes, pH 7.4, MLM (CD-1), NADPH
Source text: MLM Stability Pooled MLM from CD-1 mice (BIOIVT M00501) were used.

[3] = Metabolic stability in rat liver microsomes (RLM); assay type: in vitro ADME; settings: both sexes, rat, pooled rat liver microsomes, pH 7.4, NADPH
5-HT2A receptor [4] = biological target: T1, 5-HT2A receptor (Homo sapiens (Human), UniProt P28223); assay type: cell-based; settings: Ca^2+ flux, HEK293
Description: (§1) Functional Assays at 5-HT2A, 5-HT2B, and 5-HT1A. Agonist activity at 5-HT2A, 5-HT2B, and 5-HT1A receptors was determined using a FLIPR Ca^2+ flux assay at WuXi AppTec (Hong Kong) Limited according to their standard protocols. Briefly, stably transfected cells expressing the receptor of interest (HEK293 for 5-HT2A and 5-HT2B; CHO cells for 5-HT1A) were grown and plated in a 384 well plate and incubated at 37° C. and 5% CO2 overnight. A solution of 250 mM probenecid in 1 mL FLIPR assay buffer was prepared fresh. This was combined with a fluorescent dye (Fluo-4 Direct™) to make a final assay concentration of 2.5 mM. […] The fluorescent dye was then added to the assay plate along with assay buffer to a final volume of 40 μL. The cell plate was incubated for 50 min at 37° C. and 5% CO2 and placed into the FLIPR Tetra along with the compound plate. 10p L of references and compounds were then transferred from the compound plate into the cell plate and the fluorescent signal was read.

5-HT1A receptor = 5-HT1A receptor (Homo sapiens (Human), UniProt P08908); experiment: FLIPR Ca^2+ flux agonist assay at 5-HT1A; assay type: cell-based; settings: CHO cells
Description: as §1

5-HT2B receptor = 5-HT2B receptor (Homo sapiens (Human), UniProt P41595); experiment: FLIPR Ca^2+ flux agonist assay at 5-HT2B; assay type: cell-based; settings: HEK293
Description: as §1

5-HT1B receptor = 5-HT1B receptor (Homo sapiens (Human), UniProt P28222); experiment: cAMP accumulation agonist assay at 5-HT1B; assay type: cell-based
Description: Functional Assay at 5-HT1B. Agonist activity at 5-HT1B was determined using a cAMP accumulation protocol at WuXi AppTec (Hong Kong) Limited according to their standard protocols. Briefly, stably transfected cells were plated in an OptiPlate-384 well plate, incubated at RT for 60 mins, and cAMP standard solution (800 nM, 10 μL) was added to the blank well. Then, 10 μL detection reagent was added to each well, the plate incubated for 60 mins at RT, and the plate read using EnVision.

5-HT2A receptor [5] = biological target: T1, 5-HT2A receptor; assay type: cell-based; settings: beta-arrestin recruitment
Description: The degree of arrestin bias varied substantially across the other compounds tested as well.
Arrestin Functional Assay at 5-HT2A. Recruitment of beta-arrestin was determined using a PathHunter assay at Eurofins DiscoverX (Fremont, CA) according to their standard protocols. PathHunter GPCR beta-arrestin assays take advantage of DiscoverX's proprietary Enzyme Fragment Complementation technology. The GPCR is fused in frame with a small enzyme donor fragment ProLink™ (PK) and co-expressed in cells stably expressing a fusion protein of beta-arrestin and the larger, N-terminal deletion mutant of beta-galactosidase. Activation of the GPCR (5-HT2A receptor in this case) stimulates binding of beta-arrestin to the PK-tagged GPCR and forces complementation of the two enzyme fragments, resulting in the formation of an active beta-galactosidase enzyme. This interaction leads to an increase in enzyme activity that can be measured using chemiluminescent PathHunter Detection Reagents. Briefly, PathHunter cells expressing 5-HT2A receptors were seeded in a volume of 20 μL into 384-well plates and incubated at 37° C. for the appropriate time prior to testing. […] Plates were then imaged on a microplate reader and the agonist activity was calculated using the following formula: % Activity=100%×(mean RLU of test sample−mean RLU of vehicle control)/(mean MAX control ligand−mean RLU of vehicle control), where RLU=relative light units.

C57BL/6 mice = experiment: Mouse head twitch response (HTR) assay; assay type: in vivo; settings: mouse HTR, SC; for # HTR at Most Efficacious Dose / Emax (95% CI): 20 min observation; for Emax (95% CI): curve fit
Description: Agonists of the 5-HT2A receptor are well known to induce this effect in rodents and the potency of this HTR is correlated with hallucinogenic potency in humans.
Animals. Adult male C57BL/6 mice, aged 6-8 weeks (body weight 20-25 g) were used in this experiment. Animals were housed under controlled temperatures and 12-hour light/dark cycles (lights on between 07:00-19:00 h), with ad libitum food and water. This study was carried out in strict accordance with the requirements of the Committee for the Purpose of Control and Supervision of Experiments on Animals (CPCSEA), India. All efforts were made to minimize suffering.
Drugs and Drug Administration. Compound 1 was synthesized as described above. It was administered subcutaneously (SC) dissolved in saline vehicle at a volume of 10 mL/kg. Five doses were tested, with n=6 animals/group. Doses were calculated on the basis of the freebase.
Procedure. Mice were administered one dose of the drug and immediately placed into a small open field for behavioral observation. Animals were observed continuously for 20 mins and the number of head twitches (HTs) were counted by an observer blind to the treatment condition.
Statistical Analysis. The data points shown are the mean±standard error of the mean (SEM). Analysis was performed using GraphPad Prism 6. Curves were fit using a non-linear gaussian distribution to calculate ED50 and Emax values.
Additional disclosed compounds were tested in the mouse head twitch response (HTR) assay according to the procedure described in Example 34. […] Lastly, compounds with much larger benzyl and phenethyl substituents on the amine nitrogen (e.g., 10 and 11) were low efficacy in this assay, consistent with their lower maximal efficacy in the arrestin functional assay (see Example 32).

human 5-HT2C receptor = human 5-HT2C receptor (Homo sapiens (Human), UniProt P28335); assay type: cell-based; settings: Ca^2+ flux
Sequence of human 5-HT2C receptor (P28335 33-458 limits assumed): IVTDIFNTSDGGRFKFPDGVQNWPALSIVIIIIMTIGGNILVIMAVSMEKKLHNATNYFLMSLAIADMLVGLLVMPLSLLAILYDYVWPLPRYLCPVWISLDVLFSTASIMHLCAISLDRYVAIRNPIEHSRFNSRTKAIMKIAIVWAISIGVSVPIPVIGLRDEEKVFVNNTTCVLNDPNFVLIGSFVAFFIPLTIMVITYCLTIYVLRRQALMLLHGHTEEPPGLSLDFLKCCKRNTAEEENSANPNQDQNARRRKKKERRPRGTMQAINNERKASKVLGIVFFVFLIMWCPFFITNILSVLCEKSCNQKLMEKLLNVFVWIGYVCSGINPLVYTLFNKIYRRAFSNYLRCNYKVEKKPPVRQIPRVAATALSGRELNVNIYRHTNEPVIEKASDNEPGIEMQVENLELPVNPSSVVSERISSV

Sequence of 5-HT2B receptor (P41595 whole entry, looked up): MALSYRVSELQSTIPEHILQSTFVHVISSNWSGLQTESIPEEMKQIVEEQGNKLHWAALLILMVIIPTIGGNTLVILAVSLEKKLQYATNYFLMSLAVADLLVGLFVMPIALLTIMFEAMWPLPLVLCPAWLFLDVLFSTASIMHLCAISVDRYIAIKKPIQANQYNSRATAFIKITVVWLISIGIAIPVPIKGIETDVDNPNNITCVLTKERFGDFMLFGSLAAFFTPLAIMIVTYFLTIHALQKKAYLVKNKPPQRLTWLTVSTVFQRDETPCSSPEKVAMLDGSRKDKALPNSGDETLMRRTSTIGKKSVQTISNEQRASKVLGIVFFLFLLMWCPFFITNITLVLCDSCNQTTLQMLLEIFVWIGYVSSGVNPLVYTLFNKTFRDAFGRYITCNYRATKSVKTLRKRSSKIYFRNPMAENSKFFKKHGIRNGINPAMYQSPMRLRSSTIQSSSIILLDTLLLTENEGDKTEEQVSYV
Sequence of 5-HT1B receptor (P28222 whole entry, looked up): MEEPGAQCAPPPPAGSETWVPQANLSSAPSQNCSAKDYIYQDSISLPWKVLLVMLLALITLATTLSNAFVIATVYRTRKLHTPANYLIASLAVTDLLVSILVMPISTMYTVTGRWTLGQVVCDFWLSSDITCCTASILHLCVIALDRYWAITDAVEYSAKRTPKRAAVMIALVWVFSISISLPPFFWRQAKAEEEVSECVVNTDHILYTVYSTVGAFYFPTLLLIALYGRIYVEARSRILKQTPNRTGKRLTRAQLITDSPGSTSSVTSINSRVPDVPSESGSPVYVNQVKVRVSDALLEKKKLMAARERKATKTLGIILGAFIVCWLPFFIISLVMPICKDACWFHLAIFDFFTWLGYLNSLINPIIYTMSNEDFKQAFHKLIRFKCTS

SMILES | half-life at 1 μM [1] [min] | half-life at 1 μM [2] [min] | half-life at 1 μM [3] [min] | 5-HT2A % Act @ Max Dose (5-HT2A receptor [4]) [%] | 5-HT1A % Act @ Max Dose (5-HT1A receptor) [%] | 5-HT2B % Act @ Max Dose (5-HT2B receptor) [%] | 5-HT1B % Act @ Max Dose (5-HT1B receptor) [%] | 5-HT2A Arrestin % Act @ Max Dose (5-HT2A receptor [5]) [%] | agonist type in the 5-HT2A arrestin recruitment assay, in words (5-HT2A receptor [5]) | Most Efficacious Dose (C57BL/6 mice) | # HTR at Most Efficacious Dose (C57BL/6 mice) | Emax (95% CI) (C57BL/6 mice) | 5-HT2C % Act @ Max Dose (human 5-HT2C receptor) [%]
CCN(CC)C(=O)[C@@H]1C=C2c3cccc4[nH]cc(c34)C[C@H]2N(CCc2cccc(OC)c2)C1 [Compound 20, (6aR,9R)-N,N-diethyl-7-(3-methoxyphenethyl)-4,6,6a,7,8,9-hexahydroindolo[4,3-fg]quinoline-9-carboxamide] | 2.1 | 0.9 | 1.2 | 77.19 | 3.85 | 3.60 | 34.59 | – | – | – | – | – | –
CCN(CC)C(=O)[C@@H]1C=C2c3cccc4[nH]cc(c34)C[C@H]2N(Cc2ccccn2)C1 [Compound 22, (6aR,9R)-N,N-diethyl-7-(pyridin-2-ylmethyl)-4,6,6a,7,8,9-hexahydroindolo[4,3-fg]quinoline-9-carboxamide] | 23.8 | 9.2 | 13.2 | 64.47 | 57.33 | 7.74 | 89.15 | – | – | – | – | – | –
CCN(CC)C(=O)[C@@H]1C=C2c3cccc4[nH]cc(c34)C[C@H]2N(Cc2ccccc2O)C1 [Compound 16, (6aR,9R)-N,N-diethyl-7-(2-hydroxybenzyl)-4,6,6a,7,8,9-hexahydroindolo[4,3-fg]quinoline-9-carboxamide] | 4.9 | 1.3 | 2.2 | 62.05 | 22.29 | 26.497 | 90.1 | – | – | – | – | – | –
CCN(CC)C(=O)[C@@H]1C=C2c3cccc4[nH]cc(c34)C[C@H]2N(Cc2ccc(OC)cc2)C1 [Compound 19, (6aR,9R)-N,N-diethyl-7-(4-methoxybenzyl)-4,6,6a,7,8,9-hexahydroindolo[4,3-fg]quinoline-9-carboxamide] | 16.8 | 7.2 | 10 | 70.54 | −0.65 | 2.44 | 71.08 | – | – | – | – | – | –
CCN(CC)C(=O)[C@@H]1C=C2c3cccc4[nH]cc(c34)C[C@H]2N(CCc2ccccn2)C1 [Compound 23, (6aR,9R)-N,N-diethyl-7-(2-(pyridin-2-yl)ethyl)-4,6,6a,7,8,9-hexahydroindolo[4,3-fg]quinoline-9-carboxamide] | 7.2 | 1.8 | 4.2 | 85.397 | 46.19 | 12.50 | 83.68 | – | – | – | – | – | –
CCC(CC)NC(=O)[C@@H]1C=C2c3cccc4[nH]cc(c34)C[C@H]2N(C)C1 [Int14, (6aR,9R)-7-methyl-N-(pentan-3-yl)-4,6,6a,7,8,9-hexahydroindolo[4,3-fg]quinoline-9-carboxamide] | 17.6 | 6.07 | 38 | 93.33 | 102.46 | 9.84 | – | 44.377 | partial agonists | (1 mg/kg) | 10.5 | 21.63 | 99.149
CCN(CC)C(=O)[C@@H]1C=C2c3cccc4[nH]cc(c34)C[C@H]2N(Cc2cccc(OC)c2)C1 [Compound 18, (6aR,9R)-N,N-diethyl-7-(3-methoxybenzyl)-4,6,6a,7,8,9-hexahydroindolo[4,3-fg]quinoline-9-carboxamide] | 13.6 | 2.6 | 5.3 | 61.09 | 28.93 | 4.69 | 83.31 | – | – | – | – | – | –
C=CCN1C[C@H](C(=O)N[C@H](C)CC)C=C2c3cccc4[nH]cc(c34)C[C@H]21 [Compound 8, (6aR,9R)-7-allyl-N-((R)-sec-butyl)-4,6,6a,7,8,9-hexahydroindolo[4,3-fg]quinoline-9-carboxamide] | 7.9 | 3.7 | 7.7 | 99.25 | 116.41 | 91.56 | – | 112.42 | full agonists | (1 mg/kg) | 15.75 | 12.03 | 108.26
CCN(CC)C(=O)[C@@H]1C=C2c3cccc4[nH]cc(c34)C[C@H]2N(CCc2ccc(OC)cc2)C1 [Compound 21, (6aR,9R)-N,N-diethyl-7-(4-methoxyphenethyl)-4,6,6a,7,8,9-hexahydroindolo[4,3-fg]quinoline-9-carboxamide] | 3.8 | 1.9 | 4.3 | 51.23 | 8.2 | 1.73 | 79.13 | – | – | – | – | – | –
CC[C@@H](C)NC(=O)[C@@H]1C=C2c3cccc4[nH]cc(c34)C[C@H]2N(C)C1 [Int8, (6aR,9R)-N-((R)-sec-butyl)-7-methyl-4,6,6a,7,8,9-hexahydroindolo[4,3-fg]quinoline-9-carboxamide] | 64.9 | 39.9 | 99.5 | 96.25 | 90.25 | 17.7 | – | 46.06 | partial agonists | (1 mg/kg) | 13.5 | 14.34 | 98.245

From patent US20240368151A1, “NOVEL ERGOLINES AND METHODS OF TREATING MOOD DISORDERS” (priority 2021, published 2024)
